Reference: US6858723B1, “Amphiphile cyclodextrins, preparation and use thereof for solubilizing organized systems and incorporating hydrophobic molecules” (Commissariat a l'Energie Atomique, priority 1999, dated 2005)

Experiments:
Type in all cases: physicochemical
[1] = neutron diffusion of nanoparticles loaded with hydrophobic compounds
Description: FIG. 7 represents the neutron diffusion spectra obtained with: • the solution of nanoparticles of cyclodextrin according to example 1 and the fatty acid (1:0.5 eq. mol) (spectrum 9); • the solution of nanoparticles of cyclodextrin according to example 1 and the fatty acid (1:1 eg. mol) (spectrum 10); and • the solution of nanoparticles of cyclodextrin alone (spectrum 11).
In this figure, the theoretical spectrum (spectrum 12) simulating spheres has also been represented.
The intensity I(q) is increased. The Intensity I(q) is proportional to the volume of nanoparticles. The presence of additional molecules (fatty acid molecules) in the nanoparticles increases the value of the contrast and therefore the intensity.
The incorporation in mono-6-(cholest-5-en-3α-ylamide)succinylamide-6-deoxy-2,2′,2″,2′″,2″″,2′″″,2″″″,6′,6″,6′″, 6″″,6′″″,6″″″-trideca-O-methyl-cyclomaltoheptaose nanoparticles of the following hydrophobic compounds: • dothiepin (neurotrope), • chloramphenicol (bacteriostatic), • vitamin A, and • esculin (vascular wall tonic), • were also detected by neutron diffusion. References

[2] = cmc by surface tension measurements
Protocol: The cmc of the cyclodextrin in example 1 was determined with surface tension measurements. The value of the cmc is 9.10^−6 mol/l.

[3] = static light diffusion of aqueous nanoparticle solutions
Protocol: The mean hydrodynamic diameter of the nanoparticles was measured by quasi-elastic light diffusion. The mean diameter MD value calculated according to the Stokes-Einstein approximation based on the interaction-free perfect sphere model is […] (60 Å). The static light diffusion analysis of aqueous solutions of nanoparticles at different concentrations (2.5.10^−3, 5.10^−3 and 10^−2 mol/l) gives a mean aggregate mass of 43,000 g/mol, which is equivalent to a mean of 24 monomers per nanoparticle.

[4] = neutron diffusion of nanoparticle solution; conditions: 10^−2 mol/l in D2O
Description: The diffusion spectrum obtained from a 10^−2 mol/l solution in D2O of the cyclodextrin derivative in example 1 is represented in FIG. 1 (spectrum 1).
In FIG. 1, the theoretical spectra simulating spheres (spectrum 2), cylinders (spectrum 3) or lamellae (spectrum 4) formed from the cyclodextrin derivative in example 1, at a concentration of 10^−2 mol/l in D2O, are also shown. […] These aggregates are lined on the surface with cyclodextrin cavities available for the inclusion of hydrophobic active molecules, the core being composed of cholesterol groups. The theoretical spectrum simulating spheres gives a mean diameter of […] (50 Å) and a mean number of monomers per nanoparticle of 24.

Row | Molecule | incorporation in nanoparticles of the cyclodextrin of example 1 [1] | also measured
1 | O=c1ccc2cc(O[C@@H]3O[C@H](CO)[C@@H](O)[C@H](O)[C@H]3O)c(O)cc2o1 [esculin] | detected | –
2 | CC(CCCCCCCCCCCCCI)CC(=O)O (stereo not shown) [16-iodo-3-methylhexadecanoic acid] | marked modifications on the diffusion spectra | –
3 | mono-6-(cholest-5-en-3α-ylaamide)succinylamide-6-deoxy-2,2′,2″,2′″,2″″,2′″″,2″″″,6,6′,6″,6′″,6″″,6′″″,6″″″-trideca-O-methyl-cyclomaltoheptaose [example 1] | – | critical micellar concentration cmc [2]: 9.10^−6 mol/l; mean aggregate mass ([3]; aqueous solutions 2.5.10^−3, 5.10^−3 and 10^−2 mol/l): 43,000 g/mol; mean monomers per nanoparticle ([3]; from mean aggregate mass): 24; shape of aggregates ([4]; experimental spectrum superimposed with theoretical spectrum of spheres): spherical shape; mean number of monomers per nanoparticle ([4]; theoretical spectrum simulating spheres): 24

Now from value to molecule, other results behind:

Row | incorporation in nanoparticles of the cyclodextrin of example 1 [1] | Molecule | also measured
4 | detected | O=C(N[C@H](CO)[C@H](O)c1ccc([N+](=O)[O-])cc1)C(Cl)Cl [chloramphenicol] | –
5 | detected | CN(C)CC/C=C1\c2ccccc2CSc2ccccc21 [dothiepin] | –
6 | detected | vitamin A | –
